According to US9000027B2, “Chk1 suppresses a caspase-2 apoptotic response to DNA damage that bypasses p53, bcl-2 and caspase-3” (Dana-Farber Cancer Institute, Inc., priority 2008, dated 2015):

Assays:
[1] = system: p53^e7/e7;chk1^MO cells grafted into p53^e7/e7 hosts; test: Blastula-cell transplantation (genetic chimeras), TUNEL after IR; format: in vivo, zebrafish; details: 12.5 Gy, n=102
Text: To determine whether the Chk1-antagonized pathway functions cell autonomously or non-cell autonomously, we generated genetic chimeras (see cell transplantation procedure in FIG. 3D and assay validation in FIG. 14). While p53^e7/e7;chk1^MO cells grafted into p53^e7/e7 hosts often stained TUNEL-positive after IR (39%, n=102), neighboring host cells were virtually never seen that stained TUNEL-positive (FIG. 3E, upper panels). In the reciprocal experiment, p53^e7/e7 cells transplanted into p53^e7/e7;chk1^MO hosts remained TUNEL-negative within an otherwise TUNEL-positive environment (FIG. 3E, lower panels). Therefore, IR-induced TUNEL reactivity of transplanted cells strictly depends on Chk1 dosage, occurs irrespective of the cellular environment, and has very little, if any, influence on neighboring cells. The Chk1-suppressed apoptotic pathway thus functions in a cell-autonomous manner.
Zebrafish embryos were fixed in 4% paraformaldehyde (PFA) overnight at 4° C. and subsequently stored in methanol at −20° C. for at least 2 hr. After rehydration at room temperature in PBST (1×PBS, 0.1% Tween-20), embryos were treated with proteinase K (10 μg/mL) in PBS for 15 min, followed by a 20-min postfix in 4% PFA at room temperature. […] Tagged DNA was detected with sheep anti-digoxigenin-fluorescein or sheep anti-digoxigenin-rhodamine conjugated Fab fragments. […]

caspase-3 = test: Western blot of cleaved caspase-3 in HeLa cells; format: cell-based, human; details: 10 Gy, 24 hpIR, Gö6976 1 μM
Description: (§1) Protein extract (5-60 μg) was added to 4× gel loading buffer and 10× denaturing solution (Invitrogen) in appropriate proportions, and samples were incubated at 70° C. for 10 min. Samples were run at 200V for 1 hr on a 4-12% Bis-tris gradient gel (Invitrogen). After electrophoresis, samples were transferred for 1.5 hr (350 mA) to a Nitrocellulose membrane (Millipore) using a submerged transfer apparatus (Bio-Rad). Membranes were then blocked with 5% milk in Tris-buffered saline with 0.1% tween (TBST) and probed overnight at 4° C. with the following antibodies: anti-zebrafish Chk1 (diluted 1:200), anti-zebrafish Chk2 (1:200), anti-P-Cdc2 (1:1000), anti-actin (1:2000), anti-human ATR (1:500) and Stressgen anti-human-caspase-3 (1:500) for zebrafish immunoblots; and anti-caspase-2 (1:200), Upstate anti-caspase-3 (1:500), anti-P-ATM (1:500), anti-ATM (1:500), Santa Cruz anti-human Chk1 (1:1000), Santa Cruz anti-human Chk2 (1:1000), anti-P-Chk1 (1:500), anti-P-Chk2 (1:500), anti-P-H2A.X (1:2000), anti-P-cdc25C (1:1000), anti-P-HSP27 (1:1000), anti-HSP27 (1:1000), anti-P-Cdc2 (1:1000), anti-p53 (1:1000) and anti-GAPDH (1:5000) for immunoblots of human tumor cell lysates. Detailed references for all primary antibodies can be found in the ‘Antibodies’ section elsewhere herein.

Chk1 = target: T1, Chk1 (Homo sapiens, UniProt O14757); test: Western blot of Chk1 activity (Cdc2 Tyr15 and CDC25C Ser216 phosphorylation) in irradiated HeLa cells; format: cell-based; design: endogenous in cells; host or cells: HeLa; details: 10 Gy
T1 sequence (O14757 1-476): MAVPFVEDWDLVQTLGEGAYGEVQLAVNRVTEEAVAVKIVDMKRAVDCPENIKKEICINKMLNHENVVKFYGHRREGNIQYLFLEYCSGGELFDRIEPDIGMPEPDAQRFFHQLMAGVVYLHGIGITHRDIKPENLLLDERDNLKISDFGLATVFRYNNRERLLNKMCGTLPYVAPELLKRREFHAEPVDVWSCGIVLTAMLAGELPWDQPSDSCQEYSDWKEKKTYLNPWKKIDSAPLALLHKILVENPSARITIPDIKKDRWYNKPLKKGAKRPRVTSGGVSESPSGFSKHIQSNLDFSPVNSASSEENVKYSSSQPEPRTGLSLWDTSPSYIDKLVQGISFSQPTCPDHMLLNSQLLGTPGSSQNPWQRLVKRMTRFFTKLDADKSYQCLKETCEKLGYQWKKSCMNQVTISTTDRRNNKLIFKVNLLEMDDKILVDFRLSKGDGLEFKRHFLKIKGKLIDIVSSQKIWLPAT
Description: as §1

human cancer cell lines = test: Annexin V (+)/PI (-) apoptosis assay in human cancer cell lines; format: cell-based
Description: For the Annexin V assay, 2.0×10^5 cells treated with IR (0 or 10 Gy) and/or Gö6976 (0 or 1 μM) for 48 h were washed with cold-PBS and resuspended in staining buffer containing propidium iodide (PI) and fluorescein isothiocynate (FITC)-conjugated anti-AnnexinV antibody (MEBCYTO apoptosis kit, MBL international, MA). After 30 min incubation at room temperature, cells were analyzed by flow cytometry (FACScaliber, BD Bioscience, San Jose, Calif.) and CellQuest analysis program (BD Bioscience). The cells in PI-negative and AnnexinV-positive fraction were evaluated as apoptosis. Data were collected from two independent experiments in which each condition (shRNA, presence or absence of Gö6976) was analyzed in triplicate.

Compound | grafted cells staining TUNEL-positive after IR [1] [%] | levels of cleaved caspase-3 (caspase-3) | Chk1 inhibition (Chk1; 1 μM) | phosphorylation of Chk1 readouts CDC2 and CDC25C (Chk1; increasing concentrations, 24 hpIR) | apoptosis (human cancer cell lines; TP53+/+ HCT116 cells, IR+Gö6976) | apoptosis versus single- or no-treatment controls (human cancer cell lines; TP53 null or mutant lines, 10 Gy IR+Gö6976, 48 hpIR)
chk1 MO: morpholino against zebrafish chk1 atg/5'UTR, aggcacagccattatgcaatcttcg (SEQ ID NO: 11) (AGGCACAGCCATTATGCAATCTTCG; all phosphorodiamidate morpholino (PMO)) | 39 |  |  |  |  | 
Cn1c2ccccc2c2c3c(c4c5ccccc5n(CCC#N)c4c21)CNC3=O [Gö6976] |  | negligible | potent Chk1 inhibition | inhibited the phosphorylation of CDC2 and CDC25C | moderate, yet significant increase in apoptosis | increases in caspase-2 cleavage and apoptosis
